Results on 66 molecules are retold here after ChEMBL document CHEMBL4418278, “Serine racemase inhibitor” (2014).

Experiment [1] addresses T1, Serine racemase (Homo sapiens) (UniProt Q9GZT4).
T1 sequence (whole entry): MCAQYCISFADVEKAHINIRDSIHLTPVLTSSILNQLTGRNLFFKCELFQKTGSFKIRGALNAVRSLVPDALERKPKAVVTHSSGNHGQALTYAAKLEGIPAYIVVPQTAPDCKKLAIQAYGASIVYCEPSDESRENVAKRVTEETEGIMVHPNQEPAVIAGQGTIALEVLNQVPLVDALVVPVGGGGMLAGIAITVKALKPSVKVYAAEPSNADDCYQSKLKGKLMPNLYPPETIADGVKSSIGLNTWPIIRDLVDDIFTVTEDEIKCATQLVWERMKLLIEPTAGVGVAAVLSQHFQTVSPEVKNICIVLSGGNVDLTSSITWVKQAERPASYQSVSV
The experiment is described as follows: Inhibition of recombinant human SRR expressed in Escherichia coli assessed as reduction in conversion of L-serine to D-serine at 0.1 mM incubated for => 8 hrs in presence of PLP and recombinant D-serine dehydratase 1 by spectrophotometry relative to control.

For experiment [2], the target named is T1, Serine racemase (Homo sapiens). Kind of experiment: Inhibition of recombinant human SRR expressed in Escherichia coli assessed as reduction in conversion of L-serine to D-serine at 1 mM incubated for => 8 hrs in presence of PLP and recombinant D-serine dehydratase 1 by spectrophotometry relative to control.

Regarding `Cc1ccc(S(=O)(=O)NCC(=O)Nc2cccc([N+](=O)[O-])c2)cc1`, the inhibition in experiment [1] is 62%.

Regarding `O=C(/C=C/c1ccc([N+](=O)[O-])cc1)NC(=S)NNC(=O)Cc1cccs1`, the inhibition in experiment [2] is 35%.

On to `Cc1ccc(S(=O)(=O)NCCNC(=S)Nc2ccccc2Cl)cc1`, for which, in experiment [2], the inhibition turned out to be 69%.

As to `Cc1ccc(/C=C/C(=O)NC(=S)NNC(=O)Cc2cccs2)cc1`, the inhibition in experiment [2] was 24%.

Turning to `O=C(/C=C/c1cc(Br)cc(Br)c1)NC(=S)NNC(=O)CCc1ccccc1`, in experiment [2], the inhibition amounted to 31%.

As to `Cc1ccc(S(=O)(=O)NCC(=O)Nc2ccc(OCc3ccccc3)cc2)cc1`, the inhibition in experiment [1] amounted to 56%.

In the case of `O=C(Cc1cccs1)NNC(=S)NC(=O)Cc1ccccc1`, the inhibition in experiment [2] is 61%.

Regarding `O=C(COc1ccc(Br)cc1)NCC(=O)NC1CCCCC1`, the inhibition in experiment [1] was determined as 99%; in experiment [2] it was 53%.

Consider `Cc1ccc(S(=O)(=O)Nc2ccccc2NC(=O)Nc2ccc(Cl)c(Cl)c2)cc1`, for which the inhibition in experiment [2] came to 49%.

Regarding `O=C(/C=C/c1c(F)cc(F)cc1F)NC(=S)NNC(=O)Cc1ccccc1`, the inhibition in experiment [2] turned out to be 33%.

Turning to `COc1cccc(OC)c1/C=C/C(=O)NC(=S)NNC(=O)c1cccs1`, the inhibition in experiment [2] came to 31%.

In the case of `Cc1cccc(CC(=O)NNC(=S)NC(=O)/C=C/c2cc(Br)cc(Br)c2)c1`, the inhibition in experiment [2] came out at 24%.

Consider `Cc1ccc(S(=O)(=O)NCCNC(=O)Nc2ccc(Cl)c(Cl)c2)cc1`, for which the inhibition in experiment [2] is 52%.

As to `O=C(CNS(=O)(=O)Cc1ccccc1)Nc1c(F)cccc1F`, the inhibition in experiment [1] is 77%.

On to `Cc1ccc(S(=O)(=O)NCC(=O)N[C@@H](C)c2ccccc2)cc1`, for which the inhibition in experiment [1] worked out at 86%.

Regarding `O=C(/C=C/c1ccc(-c2ccccc2)cc1)NC(=S)NNC(=O)Cc1cccs1`, the inhibition in experiment [2] stood at 55%.

Take `O=C(Cc1c(F)cccc1F)NNC(=S)NC(=O)Cc1ccccc1`: the inhibition in experiment [2] came to 74%.

As for `Cc1ccc(S(=O)(=O)NCC(=O)NCc2ccc(Br)cc2)cc1`, the inhibition in experiment [1] came to 75%.

As to `Cc1ccc(S(=O)(=O)NCCNC(=S)Nc2ccccc2C)cc1`, the inhibition in experiment [2] was 58%.

In the case of `O=C(/C=C/c1ccc(Cl)cc1)NC(=S)NNC(=O)Cc1cccs1`, in experiment [2], the inhibition is 23%.

`O=C(NCCCNS(=O)(=O)c1ccc(Br)cc1)Nc1ccc(Cl)c(Cl)c1`: in experiment [2], the inhibition was found to be 55%.

As for `Cc1ccc(S(=O)(=O)NCCNC(=O)Nc2ccccc2)cc1`, in experiment [2], the inhibition is 79%.

Regarding `COc1cccc(OC)c1/C=C/C(=O)NC(=S)NNC(=O)Cc1ccccc1`, the inhibition in experiment [2] is 24%.

As for `O=C(/C=C/c1ccc(F)cc1)NC(=S)NNC(=O)c1cccs1`, the inhibition in experiment [2] was determined as 46%.

As to `O=C(CNS(=O)(=O)c1ccc(Cl)cc1)Nc1ccccc1Br`, the inhibition in experiment [1] worked out at 60%.

On to `O=C(NCCNS(=O)(=O)c1ccc(Br)cc1)Nc1ccc(Cl)c(Cl)c1`, for which the inhibition in experiment [2] was 49%.

In the case of `Cc1ccc(S(=O)(=O)NCC(=O)NNC(=O)Cc2ccc(F)cc2)cc1`, the inhibition in experiment [1] was found to be 60%.

For the molecule `COc1ccc(NC(=O)CNC(=O)COc2ccccc2)c(C)c1`, the inhibition in experiment [1] was 87%; in experiment [2] it was 62%.

As to `Cc1ccc(S(=O)(=O)NCCNC(=O)Nc2ccc(Cl)cc2Cl)cc1`, in experiment [2], the inhibition is 59%.

On to `Cc1cccc(CC(=O)NNC(=S)NC(=O)Cc2ccccc2)c1`, for which, in experiment [2], the inhibition worked out at 45%.

As to `O=C(Cc1ccccc1)NNC(=S)NC(=O)Cc1ccccc1`, in experiment [2], the inhibition worked out at 41%.

`O=C(O)CC(=O)O`: the inhibition in experiment [1] lay in the range of 62 to 110%; in experiment [2], 54 to 85%.

As for `O=C(CNS(=O)(=O)Cc1ccccc1)Nc1cccc(Br)c1`, the inhibition in experiment [1] came out at 63%.

Consider `O=C(Cc1ccc(F)cc1)NNC(=S)NC(=O)Cc1ccccc1`, for which, in experiment [2], the inhibition worked out at 0%.

With `O=C(/C=C/c1cc(Br)cc(Br)c1)NC(=S)NNC(=O)Cc1cccs1`, the inhibition in experiment [2] came to 28%.

As to `O=C(Cc1ccc(F)cc1)NNC(=S)NC(=O)CC1CCCCC1`, in experiment [1], the inhibition was 67%.

For the molecule `Cc1ccc(S(=O)(=O)NCCNC(=O)Nc2ccc(Br)cc2Cl)cc1`, the inhibition in experiment [2] was found to be 57%.

`O=C(Cc1ccc(F)cc1)NNC(=S)NC(=O)Cc1ccc(F)cc1`: in experiment [1], the inhibition is 67%.

Take `COc1ccccc1NC(=S)NCCNS(=O)(=O)c1ccc(C)cc1`: the inhibition in experiment [2] was 76%.

On to `COc1ccc(S(=O)(=O)NCC(=O)Nc2cccc(Br)c2)cc1`, for which the inhibition in experiment [1] came out at 59%.

For `COc1ccc(S(=O)(=O)NCCCNC(=O)Nc2ccc(Cl)c(Cl)c2)cc1`, the inhibition in experiment [2] amounted to 55%.

Consider `O=C(/C=C/c1ccc(C(F)(F)F)cc1)NC(=S)NNC(=O)Cc1cccs1`, for which the inhibition in experiment [2] turned out to be 44%.

For the molecule `O=C(/C=C/c1c(Cl)cc(Cl)cc1Cl)NC(=S)NNC(=O)Cc1cccs1`, in experiment [2], the inhibition was found to be 33%.

As to `O=C(/C=C/c1ccc(F)cc1)NC(=S)NNC(=O)Cc1ccccc1`, in experiment [2], the inhibition was 45%.

As to `COc1ccc(S(=O)(=O)NCCNC(=O)Nc2ccc(Cl)c(Cl)c2)cc1`, in experiment [2], the inhibition is 61%.

Regarding `O=C(Cc1cc(F)cc(F)c1)NNC(=S)NC(=O)Cc1ccccc1`, the inhibition in experiment [2] turned out to be 67%.

Take `COCCCNC(=S)NCCNS(=O)(=O)c1ccc(C)cc1`: the inhibition in experiment [2] was determined as 86%.

Consider `Cc1ccc(S(=O)(=O)NCCNC(=O)Nc2ccc(F)cc2)cc1`, for which the inhibition in experiment [2] came out at 76%.

For `COc1ccc(C)cc1NC(=S)NCCNS(=O)(=O)c1ccc(C)cc1`, in experiment [2], the inhibition came to 63%.

In the case of `Cc1ccc(S(=O)(=O)NCC(=O)OCc2ccccc2)cc1`, the inhibition in experiment [1] amounted to 84%.

With `C[C@@H](NC(=O)CNS(=O)(=O)Cc1ccccc1)c1ccccc1`, the inhibition in experiment [1] turned out to be 85%.

Regarding `Cc1ccc(S(=O)(=O)Nc2ccccc2NC(=O)Nc2ccc(F)cc2)cc1`, the inhibition in experiment [2] was 54%.

On to `COc1cccc(NC(=O)NCCNS(=O)(=O)c2ccc(C)cc2)c1`, for which, in experiment [2], the inhibition is 64%.

Consider `O=C(CCc1ccccc1)NNC(=S)NC(=O)Cc1ccccc1`, for which the inhibition in experiment [2] was found to be 70%.

As to `O=C(Cc1ccc(F)cc1)NNC(=S)NC(=O)Cc1c(F)cccc1F`, in experiment [1], the inhibition is 66%.

`O=C(/C=C/c1cc(Br)cc(Br)c1)NC(=S)NNC(=O)c1cccs1`: in experiment [2], the inhibition was determined as 52%.

With `COc1cccc(CC(=O)NNC(=S)NC(=O)/C=C/c2cc(Br)cc(Br)c2)c1`, the inhibition in experiment [2] turned out to be 31%.

Take `Cc1ccc(S(=O)(=O)NCC(=O)Nc2cccc(Br)c2)cc1`: the inhibition in experiment [1] came out at 52%.

On to `Cc1ccc(S(=O)(=O)NCCNC(=O)NS(=O)(=O)c2ccccc2C)cc1`, for which the inhibition in experiment [2] amounted to 62%.

Turning to `COc1ccc(/C=C/C(=O)NC(=S)NNC(=O)Cc2cccs2)c(OC)c1`, the inhibition in experiment [2] was determined as 27%.

On to `Cc1ccc(/C=C/S(=O)(=O)NCC(=O)Nc2ccc(OCc3ccccc3)cc2)cc1`, for which the inhibition in experiment [1] worked out at 63%.

`O=C(/C=C/c1cc(Br)cc(Br)c1)NC(=S)NNC(=O)Cc1ccccc1`: in experiment [2], the inhibition stood at 20%.

For the molecule `O=C(/C=C/c1cc(Br)cc(Br)c1)NC(=S)NNC(=O)c1ccccc1`, the inhibition in experiment [2] is 31%.

Take `Cc1ccc(S(=O)(=O)NCC(=O)NCc2ccc(Br)cc2F)cc1`: the inhibition in experiment [1] worked out at 67%.

For the molecule `O=C(/C=C/c1cc(Br)cc(Br)c1)NC(=S)NNC(=O)Cc1ccc(F)cc1`, the inhibition in experiment [2] came out at 49%.

`O=C(CNS(=O)(=O)Cc1ccccc1)OCc1ccccc1`: the inhibition in experiment [1] was found to be 65%.

A word on the inhibition: it is the change of the read-out against control, counted positive when it falls.
